Test results as given in patent publication US9040691B2, “Hydroxymethylaryl-substituted pyrrolotriazines as ALK1 inhibitors” (BAYER INTELLECTUAL PROPERTY GMBH, priority 2011, dated 2015).
Where a name gives a salt, the structure may show the parent alone.

Biological target: ALK1 kinase (Homo sapiens (Human), UniProt P37023)
Test: In vitro enzyme inhibition using scintillation of incorporated radio label (flashplate assay)
Type: biochemical
Conditions: biotinylated α-casein, 33P-ATP, 500 nM ATP
Experimental: B-1a. In Vitro Enzyme Inhibition Using Scintillation of Incorporated Radio Label (Flashplate Assay)
Test compounds diluted in DMSO are mixed with a suitable substrate/co-substrate (here: biotinylated α-casein and ^33P-ATP) in a corresponding assay buffer. Addition of the enzyme of interest (here: ALK1 kinase) starts the enzyme reaction. The enzyme-catalyzed incorporation of radio label into the substrate is measured via scintillation. Incorporated radio label is separated from free radio label via specific binding of the biotinylated substrate to strepavidin-coated microtiter plates (flashplates) and concomitant washing steps. The scintillation signal intensity (counts per minutes, cpm) is proportional to the enzyme activity. Enzyme inhibition results in a decreased signal intensity. IC50 values of the test compounds are determined by cpm-versus-[I] plots.
Reaction buffer contains 50 mM Tris pH 8.0 (Sigma), 1 mM MnCl2 (Sigma), 0.01% Nonidet P40 (Fluka), 0.5× Complete EDTA-free protease inhibitors (Roche; contains a mixture of several protease inhibitors for the inhibition of serine and cysteine (but not metallo-) proteases; 1 tablet contains protease inhibitors sufficient for a 50 ml cell extract; the concentration used in this assay corresponds to 1 tablet in 100 ml).
• 1.) Stop solution: Dulbecco's PBS (PAA, Pasching, Austria), 25 mM EDTA (Sigma), 25 μM ATP (Roche), 0.05% Triton X-100 (Sigma); • 2.) Saturation buffer: Dulbecco's PBS (PAA, Pasching, Austria), 100 μM ATP (Roche), 0.2% Triton X-100 (Sigma); • 3.) Wash buffer: Dulbecco's PBS (PAA, Pasching, Austria). Enzyme Solution:
ALK1 (Invitrogen, Paisley, United Kingdom) stock solution (35.7 ng/μl) is diluted to 4 ng/μl; final concentration in the reaction is 1 ng/μl.
Dephosphorylated α-casein (Sigma) is biotinylated according to the manufacturer's protocol (Pierce, Bonn, Germany) resulting in a stock solution of 61.6 μM. Briefly, EZ-Link® Biotin reagent (sulfosuccinimidyl-6-(biotinamido)hexanoate; Pierce, Bonn, Germany) is added in equal molarity to α-casein and incubated on ice for 2 h. Afterwards, the biotin reagent is removed by dialysis (2×2 h and overnight).
A 100 mM solution of cold (unlabelled) ATP (Roche) is diluted 1:100 before each test. For the substrate mix, α-casein is diluted to 2.22 μM resulting in a final concentration of 1 μM α-casein in the reaction. Additionally, cold ATP is added to give a 1.11 μM solution which results in a final concentration of 500 nM in the reaction.
Radioactive ATP Solution:
The stock solution (9.25 MBq/25 μl of ^33P-ATP; Perkin Elmer, Rodgau, Germany) is diluted to 651.2 Bq/μl.
Compounds are dissolved in 100% DMSO (10 mM stock solution) and diluted to 2 mM. Further dilutions are made stepwise 1:3.16 in DMSO.
A volume of 9 μl substrate solution is provided into each well of a 384 well microliter plate (Greiner Bio-One, Solingen, Germany), 1 μl compound solution and 5 μl of the radioactive ATP solution are added. Enzyme reaction starts with addition of 5 μl of enzyme solution. The mixture is incubated for 60 minutes at room temperature and then stopped by addition of 10 μl stop solution. The 384 well microliter flashplates (Perkin Elmer, Rodgau, Germany) are saturated with 50 μl saturation buffer per well for at least 60 minutes. Subsequently, a volume of 20 μl is discarded and replaced with 20 μl of the stopped ALK1 reaction mixture. Binding of biotinylated substrate to the flashplate is allowed for by overnight incubation at room temperature. Bound substrate is separated from unbound components through repeated washing steps (3×50 μl washing buffer per well). Finally, 50 μl washing buffer is added, and the scintillation signal (cpm) is measured in a suitable counter (Perkin Elmer, Rodgau, Germany).

ALK1 kinase, sequence (P37023 22-503): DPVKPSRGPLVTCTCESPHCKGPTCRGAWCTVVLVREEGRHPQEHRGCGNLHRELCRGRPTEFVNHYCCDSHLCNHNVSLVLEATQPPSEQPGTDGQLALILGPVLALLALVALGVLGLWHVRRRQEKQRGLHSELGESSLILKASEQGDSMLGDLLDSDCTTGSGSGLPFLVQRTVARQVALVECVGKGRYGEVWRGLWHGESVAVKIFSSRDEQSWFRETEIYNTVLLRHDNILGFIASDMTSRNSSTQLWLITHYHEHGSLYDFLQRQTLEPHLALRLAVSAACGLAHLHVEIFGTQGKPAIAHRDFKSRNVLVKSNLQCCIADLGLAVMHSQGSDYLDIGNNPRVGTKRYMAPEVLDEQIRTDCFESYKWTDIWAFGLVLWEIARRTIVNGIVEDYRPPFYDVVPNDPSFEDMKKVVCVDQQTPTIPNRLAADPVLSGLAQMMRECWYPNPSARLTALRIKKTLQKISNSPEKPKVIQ

| SMILES | IC50 |
| --- | --- |
| CC(O)c1cc(-c2cc(F)c(CO)c(F)c2)c2c(N)ncnn12 (racemic) [Example 44, rac-1-{4-Amino-5-[3,5-difluoro-4-(hydroxymethyl)phenyl]pyrrolo[2,1-f][1,2,4]triazin-7-yl}-ethanol] | 3.8 nM |
| Nc1ncnn2c(C3CCNCC3)cc(-c3ccc(CO)cc3)c12 [Example 10, {4-[4-Amino-7-(piperidin-4-yl)pyrrolo[2,1-f][1,2,4]triazin-5-yl]phenyl}methanol] | 8 nM |
| Nc1ncnn2c([C@H]3CCCNC3)cc(-c3cc(F)c(CO)c(F)c3)c12 [Example 12, (4-{4-Amino-7-[(3S)-piperidin-3-yl]pyrrolo[2,1-f][1,2,4]triazin-5-yl}-2,6-difluorophenyl)methanol] | 5.9 nM |
| Cc1nc(-c2cc(-c3ccc(CO)cc3)c3c(N)ncnn23)cs1 [Example 13, {4-[4-Amino-7-(2-methyl-1,3-thiazol-4-yl)pyrrolo[2,1-f][1,2,4]triazin-5-yl]phenyl}methanol] | 4 nM |
| CCc1nc(-c2cc(-c3ccc(CO)cc3)c3c(N)ncnn23)cs1 [Example 15, {4-[4-Amino-7-(2-ethyl-1,3-thiazol-4-yl)pyrrolo[2,1-f][1,2,4]triazin-5-yl]phenyl}methanol] | 60 nM |
| Nc1ncnn2c(CN3CCNCC3)cc(-c3ccc(CO)cc3)c12 [Example 18, {4-[4-Amino-7-(piperazin-1-ylmethyl)pyrrolo[2,1-f][1,2,4]triazin-5-yl]phenyl}methanol] | 80 nM |
| Nc1ncnn2c(CN3CCOCC3)cc(-c3ccc(CO)cc3)c12 [Example 19, {4-[4-Amino-7-(morpholin-4-ylmethyl)pyrrolo[2,1-f][1,2,4]triazin-5-yl]phenyl}methanol] | 19 nM |
| Cc1cc(-c2cc(CN3CCOCC3)n3ncnc(N)c23)ccc1CO [Example 23, {4-[4-Amino-7-(morpholin-4-ylmethyl)pyrrolo[2,1-f][1,2,4]triazin-5-yl]-2-methylphenyl}methanol] | 30 nM |
| Nc1ncnn2c(CN3CCC(O)C3)cc(-c3cc(F)c(CO)c(F)c3)c12 (stereo not shown) [Example 26, 1-({4-Amino-5-[3,5-difluoro-4-(hydroxymethyl)phenyl]pyrrolo[2,1-f][1,2,4]triazin-7-yl}methyl)pyrrolidin-3-ol] | 30 nM |
| COc1cc(-c2cc([C@H]3CC[C@H](O)CC3)n3ncnc(N)c23)cc(F)c1CO [Example 29, trans-4-{4-Amino-5-[3-fluoro-4-(hydroxymethyl)-5-methoxyphenyl]pyrrolo[2,1-f][1,2,4]triazin-7-yl}cyclohexanol] | 1 nM |
| Cc1cc(-c2cc(C3CCNC3)n3ncnc(N)c23)cc(F)c1CO (stereo not shown) [Example 32, {4-[4-Amino-7-(pyrrolidin-3-yl)pyrrolo[2,1-f][1,2,4]triazin-5-yl]-2-fluoro-6-methylphenyl}-methanol] | 4 nM |
| Nc1ncnn2c(C3(O)CCCCC3)cc(-c3cc(F)c(CO)c(F)c3)c12 [Example 33, 1-{4-Amino-5-[3,5-difluoro-4-(hydroxymethyl)phenyl]pyrrolo[2,1-f][1,2,4]triazin-7-yl}cyclohexanol trifluoroacetate] | 15 nM |

The remaining compounds from weak to strong by IC50, led by results:

| IC50 | SMILES |
| --- | --- |
| 140 nM | Nc1ncnn2c(CN3CCOCC3)cc(-c3ccc(CO)nc3)c12 [Example 24, {5-[4-Amino-7-(morpholin-4-ylmethyl)pyrrolo[2,1-f][1,2,4]triazin-5-yl]pyridin-2-yl}methanol] |
| 70 nM | Nc1ncnn2c(CN3CCCC(O)C3)cc(-c3cc(F)c(CO)c(F)c3)c12 (stereo not shown) [Example 27, 1-({4-Amino-5-[3,5-difluoro-4-(hydroxymethyl)phenyl}pyrrolo[2,1-f][1,2,4]triazin-7-yl]methyl)piperidin-3-ol] |
| 65 nM | Nc1ncnn2c(CN3CCC(O)CC3)cc(-c3cc(F)c(CO)c(F)c3)c12 [Example 25, 1-({4-Amino-5-[3,5-difluoro-4-(hydroxymethyl)phenyl]pyrrolo[2,1-f][1,2,4]triazin-7-yl}methyl)piperidin-4-ol] |
| 40 nM | Nc1ncnn2c(C(O)C3CCOCC3)cc(-c3cc(F)c(CO)c(F)c3)c12 (stereo not shown) [Example 6, {4-Amino-5-[3,5-difluoro-4-(hydroxymethyl)phenyl]pyrrolo[2,1-f][1,2,4]triazin-7-yl}(tetrahydro-2H-pyran-4-yl)methanol] |
| 5.7 nM | Nc1ncnn2c(C3(O)CCCNC3)cc(-c3cc(F)c(CO)c(F)c3)c12 (racemic) [Example 9, rac-3-{4-Amino-5-[3,5-difluoro-4-(hydroxymethyl)phenyl]pyrrolo[2,1-f][1,2,4]triazin-7-yl}-piperidin-3-ol] |
| 5.3 nM | Cc1nc(-c2cc(-c3cc(F)c(CO)c(F)c3)c3c(N)ncnn23)cs1 [Example 14, {4-[4-Amino-7-(2-methyl-1,3-thiazol-4-yl)pyrrolo[2,1-f][1,2,4]triazin-5-yl]-2,6-difluorophenyl}-methanol] |
| 4.1 nM | NCc1nc(-c2cc(-c3cc(F)c(CO)c(F)c3)c3c(N)ncnn23)cs1 [Example 34, (4-[4-Amino-7-[2-(aminomethyl)-1,3-thiazol-4-yl]pyrrolo[2,1-f][1,2,4]triazin-5-yl]-2,6-difluorophenyl)methanol] |
| 4 nM | Cc1cc(-c2cc(C3CCCNC3)n3ncnc(N)c23)cc(F)c1CO (stereo not shown) [Example 31, {4-[4-Amino-7-(piperidin-3-yl)pyrrolo[2,1-f][1,2,4]triazin-5-yl]-2-fluoro-6-methylphenyl}-methanol] |
| 2.6 nM | CCc1nc(-c2cc(-c3cc(F)c(CO)c(F)c3)c3c(N)ncnn23)cs1 [Example 16, {4-[4-Amino-7-(2-ethyl-1,3-thiazol-4-yl)pyrrolo[2,1-f][1,2,4]triazin-5-yl]-2,6-difluorophenyl}-methanol] |
| 1 nM | Nc1ncnn2c(CCCCO)cc(-c3ccc(CO)cc3)c12 [Example 4, 4-{4-Amino-5-[4-(hydroxymethyl)phenyl]pyrrolo[2,1-f][1,2,4]triazin-7-yl}butan-1-ol] |
